Measurements published in ChEMBL document CHEMBL1201862, “PubChem BioAssay data set” (2004).
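1) Cells in 96-well plates. 2) Compound, 48 h, 5 concentrations. 3) Linear interpolation between surrounding doses. 4) Unreached endpoint = highest concentration. Abbreviation: GI50, concentration required for 50% inhibition of growth.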 Activity calls are given as the source filed them. Cut-off read from the data, not from the text of the source: active = GI50 up to about 1.1 µM and inactive = higher.

Tests used:
Assay in all cases: NCI anticancer screen, dose series, 48 h
MCF7 = system: MCF7
UO-31 = system: UO-31
NCI-H460 = system: NCI-H460
A549 = system: A549
HOP-62 = system: HOP-62
MDA-N = system: MDA-N
HCT-15 = system: HCT-15
MOLT-4 = system: MOLT-4
SK-MEL-28 = system: SK-MEL-28
M14 = system: M14
HOP-92 = system: HOP-92
RXF 393 = system: RXF 393
CAKI-1 = system: CAKI-1
OVCAR-5 = system: OVCAR-5
SN12C = system: SN12C
HCC 2998 = system: HCC 2998
SW-620 = system: SW-620
PC-3 = system: PC-3
RPMI-8226 = system: RPMI-8226
NCI-H522 = system: NCI-H522
UACC-62 = system: UACC-62
UACC-257 = system: UACC-257
NCI/ADR-RES = system: NCI/ADR-RES
HCT-116 = system: HCT-116
EKVX = system: EKVX
ACHN = system: ACHN
Malme-3M = system: Malme-3M
U-251 = system: U-251
DU-145 = system: DU-145
HL-60 = system: HL-60
COLO 205 = system: COLO 205
OVCAR-4 = system: OVCAR-4
SK-OV-3 = system: SK-OV-3
TK-10 = system: TK-10
MDA-MB-435 = system: MDA-MB-435
SK-MEL-2 = system: SK-MEL-2
SF-268 = system: SF-268
KM12 = system: KM12
NCI-H23 = system: NCI-H23
SK-MEL-5 = system: SK-MEL-5
T47D = system: T47D
A498 = system: A498
OVCAR-8 = system: OVCAR-8
SR = system: SR
CCRF-CEM = system: CCRF-CEM
MDA-MB-231 = system: MDA-MB-231
SNB-75 = system: SNB-75
OVCAR-3 = system: OVCAR-3
LOX IMVI = system: LOX IMVI
HT-29 = system: HT-29
BT-549 = system: BT-549
NCI-H226 = system: NCI-H226
SF-295 = system: SF-295
786-0 = system: 786-0
SF-539 = system: SF-539
SNB-19 = system: SNB-19
IGROV-1 = system: IGROV-1
K562 = system: K562

Q: For `CCOC(=O)c1c(C)n(Cc2ccc(Cl)cc2Cl)c2c1cc(O)c1[nH]c3c(c12)CCCC3`, which GI50 (MCF7) is on record?
A: 14.6 µM (inactive)

Q: And the GI50 (UO-31)?
A: 20.7 µM (inactive)

Q: And the GI50 (NCI-H460)?
A: 28.3 µM (inactive)

Q: What about the GI50 (A549) of the same compound?
A: 52 µM (inactive)

Q: What about the GI50 (HOP-62) of the same compound?
A: 27.5 µM (inactive)

Q: What about the GI50 (MDA-N) of the same compound?
A: 21.2 µM (inactive)

Q: And the GI50 (HCT-15)?
A: 41.7 µM

Q: And the GI50 (MOLT-4)?
A: < 0.01 µM (active)

Q: And the GI50 (SK-MEL-28)?
A: 22.1 µM (inactive)

Q: And the GI50 (M14)?
A: 26.7 µM (inactive)

Q: What about the GI50 (HOP-92) of the same compound?
A: 20.2 µM (inactive)

Q: And the GI50 (RXF 393)?
A: 18.5 µM (inactive)

Q: And the GI50 (CAKI-1)?
A: 22.8 µM (inactive)

Q: What about the GI50 (OVCAR-5) of the same compound?
A: 36.2 µM (inactive)

Q: What about the GI50 (SN12C) of the same compound?
A: 22.9 µM (inactive)

Q: And the GI50 (HCC 2998)?
A: 27.3 µM (inactive)

Q: What about the GI50 (SW-620) of the same compound?
A: 30.7 µM (inactive)

Q: And the GI50 (PC-3)?
A: 19.9 µM (inactive)

Q: And the GI50 (RPMI-8226)?
A: 16.6 µM (inactive)

Q: And the GI50 (NCI-H522)?
A: 16.1 µM (inactive)

Q: And the GI50 (UACC-62)?
A: 22.5 µM (inactive)

Q: What about the GI50 (UACC-257) of the same compound?
A: 19.3 µM (inactive)

Q: And the GI50 (NCI/ADR-RES)?
A: 18.8 µM (inactive)

Q: What about the GI50 (HCT-116) of the same compound?
A: 40.7 µM (inactive)

Q: And the GI50 (EKVX)?
A: 34.6 µM (inactive)

Q: What about the GI50 (ACHN) of the same compound?
A: 25.6 µM (inactive)

Q: And the GI50 (Malme-3M)?
A: 20.6 µM (inactive)

Q: What about the GI50 (U-251) of the same compound?
A: 37.8 µM (inactive)

Q: What about the GI50 (DU-145) of the same compound?
A: 36.4 µM (inactive)

Q: What about the GI50 (HL-60) of the same compound?
A: < 0.01 µM (active)

Q: And the GI50 (COLO 205)?
A: 37.1 µM (inactive)

Q: And the GI50 (OVCAR-4)?
A: 17.1 µM (inactive)

Q: What about the GI50 (SK-OV-3) of the same compound?
A: 41.2 µM (inactive)

Q: What about the GI50 (TK-10) of the same compound?
A: 24.5 µM (inactive)

Q: And the GI50 (MDA-MB-435)?
A: 20.3 µM (inactive)

Q: What about the GI50 (SK-MEL-2) of the same compound?
A: 24 µM (inactive)

Q: And the GI50 (SF-268)?
A: 20.8 µM (inactive)

Q: And the GI50 (KM12)?
A: 22.6 µM (inactive)

Q: And the GI50 (NCI-H23)?
A: 27.5 µM (inactive)

Q: What about the GI50 (SK-MEL-5) of the same compound?
A: 20.5 µM (inactive)

Q: What about the GI50 (T47D) of the same compound?
A: 14.7 µM (inactive)

Q: And the GI50 (A498)?
A: 19.5 µM (inactive)

Q: What about the GI50 (OVCAR-8) of the same compound?
A: 11.4 µM (inactive)

Q: What about the GI50 (SR) of the same compound?
A: 0.136 µM (active)

Q: What about the GI50 (CCRF-CEM) of the same compound?
A: 16.8 µM (inactive)

Q: And the GI50 (MDA-MB-231)?
A: 34.2 µM (inactive)

Q: What about the GI50 (SNB-75) of the same compound?
A: 23.3 µM (inactive)

Q: And the GI50 (OVCAR-3)?
A: 38 µM (inactive)

Q: What about the GI50 (LOX IMVI) of the same compound?
A: 33.5 µM (inactive)

Q: And the GI50 (HT-29)?
A: 24 µM (inactive)

Q: And the GI50 (BT-549)?
A: 18.9 µM (inactive)

Q: And the GI50 (NCI-H226)?
A: 23.6 µM (inactive)

Q: And the GI50 (SF-295)?
A: 29.3 µM (inactive)

Q: What about the GI50 (786-0) of the same compound?
A: 30.1 µM (inactive)

Q: And the GI50 (SF-539)?
A: 24.1 µM (inactive)

Q: And the GI50 (SNB-19)?
A: 23.6 µM (inactive)

Q: And the GI50 (IGROV-1)?
A: 24.9 µM (inactive)

Q: `COc1ccc(NC(=S)C#N)cc1` was tested. Which GI50 (MCF7) did it give?
A: > 100 µM (inactive)

Q: And the GI50 (A549)?
A: > 100 µM (inactive)

Q: What about the GI50 (HOP-62) of the same compound?
A: > 100 µM (inactive)

Q: What about the GI50 (MDA-N) of the same compound?
A: > 100 µM (inactive)

Q: What about the GI50 (HCT-15) of the same compound?
A: > 100 µM

Q: What about the GI50 (SK-MEL-28) of the same compound?
A: > 100 µM (inactive)

Q: And the GI50 (M14)?
A: > 100 µM (inactive)

Q: What about the GI50 (HOP-92) of the same compound?
A: 97.3 µM (inactive)

Q: What about the GI50 (RXF 393) of the same compound?
A: > 100 µM (inactive)

Q: And the GI50 (CAKI-1)?
A: > 100 µM (inactive)

Q: And the GI50 (OVCAR-5)?
A: > 100 µM (inactive)

Q: What about the GI50 (SN12C) of the same compound?
A: > 100 µM (inactive)

Q: And the GI50 (HCC 2998)?
A: > 100 µM (inactive)

Q: And the GI50 (SW-620)?
A: > 100 µM (inactive)

Q: What about the GI50 (PC-3) of the same compound?
A: > 100 µM (inactive)

Q: And the GI50 (RPMI-8226)?
A: 38.7 µM (inactive)

Q: And the GI50 (UACC-62)?
A: > 100 µM (inactive)

Q: And the GI50 (UACC-257)?
A: > 100 µM (inactive)

Q: And the GI50 (NCI/ADR-RES)?
A: > 100 µM (inactive)

Q: What about the GI50 (HCT-116) of the same compound?
A: > 100 µM (inactive)

Q: What about the GI50 (K562) of the same compound?
A: 49.3 µM (inactive)

Q: What about the GI50 (ACHN) of the same compound?
A: > 100 µM (inactive)

Q: What about the GI50 (U-251) of the same compound?
A: > 100 µM (inactive)

Q: And the GI50 (DU-145)?
A: > 100 µM (inactive)

Q: What about the GI50 (HL-60) of the same compound?
A: 53 µM (inactive)

Q: And the GI50 (COLO 205)?
A: > 100 µM (inactive)

Q: What about the GI50 (SK-OV-3) of the same compound?
A: > 100 µM (inactive)

Q: And the GI50 (TK-10)?
A: > 100 µM (inactive)

Q: What about the GI50 (MDA-MB-435) of the same compound?
A: > 100 µM (inactive)

Q: What about the GI50 (SK-MEL-2) of the same compound?
A: > 100 µM (inactive)

Q: What about the GI50 (SF-268) of the same compound?
A: > 100 µM (inactive)

Q: And the GI50 (KM12)?
A: > 100 µM (inactive)

Q: What about the GI50 (NCI-H23) of the same compound?
A: > 100 µM (inactive)

Q: What about the GI50 (SK-MEL-5) of the same compound?
A: > 100 µM (inactive)

Q: What about the GI50 (T47D) of the same compound?
A: 85.7 µM (inactive)

Q: And the GI50 (A498)?
A: 51.9 µM (inactive)

Q: And the GI50 (OVCAR-8)?
A: > 100 µM (inactive)

Q: What about the GI50 (SR) of the same compound?
A: > 100 µM (inactive)

Q: And the GI50 (CCRF-CEM)?
A: 54.1 µM (inactive)

Q: And the GI50 (MDA-MB-231)?
A: > 100 µM (inactive)

Q: What about the GI50 (SNB-75) of the same compound?
A: > 100 µM (inactive)

Q: What about the GI50 (OVCAR-3) of the same compound?
A: > 100 µM (inactive)

Q: And the GI50 (LOX IMVI)?
A: > 100 µM (inactive)

Q: What about the GI50 (HT-29) of the same compound?
A: > 100 µM (inactive)

Q: What about the GI50 (BT-549) of the same compound?
A: > 100 µM (inactive)

Q: And the GI50 (NCI-H226)?
A: > 100 µM (inactive)

Q: And the GI50 (SF-295)?
A: > 100 µM (inactive)

Q: What about the GI50 (786-0) of the same compound?
A: > 100 µM (inactive)

Q: What about the GI50 (SF-539) of the same compound?
A: > 100 µM (inactive)

Q: And the GI50 (SNB-19)?
A: > 100 µM (inactive)
